{"source": "patent US20050222078A1", "about": "“Use of pyrimidine nucleotides for the treatment of affections of the peripheral nervous system” (priority 2002, published 2005)", "key": {"[1]": {"tested_on": "traumatically affected peripheral nerves", "details": "Wistar rats, B. Wattig et al. 1991; cited from earlier work"}, "patients with lumbago": {"tested_on": "patients with lumbago", "assay": "Clinical study of UMP versus placebo in patients with lumbago", "type": "in vivo", "experimental": "In the following the effectivity of pyrimidine nucleotides for the treatment of affections of the peripheral nervous system as well as for the stimulation of the regeneration of nerves is described by example of uridine-5′-monophosphate (UMP) by example of the indication lumbago. 80 female as well as male patients, aged between 20 and 63 years, were separated randomly into two groups, one was treated with UMP and the other with placebo. The treatment ranged over four consecutive days, whereas the treatment could be terminated ahead of schedule as soon as the symptoms were ameliorating in a way, that a further treatment was needless. Applied was once per day into a vein of the arm an injection solution of 19.349 mg UMP (this corresponds to a mass of 12.834 mg uridine) in 250 ml of physiological sodium chloride solution over a time period of 30 minutes. The comparison group received as placebo only the 250 ml of physiological sodium chloride solution without an active agent. For this clinical study only patients were chosen with a pain intensity of at least 40 mm on the VAS scale (VAS: visual analogue scale). The pain intensity is given on the linear VAS scale in the unit “mm” and was determined by prompting the patients to mark on the linear VAS scale the point, which corresponded to their respective pain intensity. Thereby a non sensible pain was given with the value 0 mm and the possibly maximum pain with the value 100 mm. The pain intensity of the patients was continuously checked, whereas the patients also had to indicate the respective duration of the single pain periods. Table 1 proves, that already after a short time period after the initial injection the pain intensity strongly decreases in the resting and moving state in the case of the UMP patient group. The finger-floor distance represents a measure for the mobility, i.e. for the grade of capability to bend the back, and is given in the unit “cm”, whereas the distance between the finger tip in the case of outstretched arms and the curvature in the case of maximal possible bending of the back was measured."}, "[2]": {"details": "decrease in the UMP patient group"}, "[3]": {"details": "decrease of pain in the UMP patient group, VAS"}, "[4]": {"details": "difference of decrease, UMP versus placebo group"}}, "data": [{"smiles": "Nc1ccn([C@@H]2O[C@H](COP(=O)(O)O)[C@@H](O)[C@H]2O)c(=O)n1", "note": "[CMP, cytidine-5′-monophosphate]", "values": [{"measurement": "Filament area of nerve filaments (myelin and axon areas)", "setting": "[1]", "value": "no comparable results"}]}, {"smiles": "O=c1ccn([C@@H]2O[C@H](COP(=O)(O)O)[C@@H](O)[C@H]2O)c(=O)[nH]1", "note": "[UMP, uridine-5′-monophosphate]", "values": [{"measurement": "Presence of myogelosis", "setting": "patients with lumbago; UMP patient group, 24 h after inj., base line 100%", "value": 90, "unit": "%"}, {"measurement": "Pain during resting state", "setting": "patients with lumbago; VAS scale, average of UMP patient group, 24 h after inj., 19.349 mg UMP i.v. once per day, base line 60.3", "value": 46.2, "unit": "mm"}, {"measurement": "Pain during movement", "setting": "patients with lumbago; VAS scale, average of UMP patient group, 24 h after inj., base line 76.1", "value": 56.9, "unit": "mm"}, {"measurement": "Daily duration of pain", "setting": "patients with lumbago; average of UMP patient group, 24 h after inj., base line 15.8", "value": 10.7, "unit": "h"}, {"measurement": "Finger-floor distance", "setting": "patients with lumbago; average of UMP patient group, 24 h after inj., base line 43.8", "value": 32.5, "unit": "cm"}, {"measurement": "Δ UMP, Daily duration of pain", "setting": "patients with lumbago; [2]", "value": -4.3, "unit": "h"}, {"measurement": "Δ UMP, Finger-floor distance", "setting": "patients with lumbago; [2]", "value": "−10.1", "unit": "cm"}, {"measurement": "Δ UMP, Pain during movement", "setting": "patients with lumbago; [3]", "value": "−17.9", "unit": "mm"}, {"measurement": "Δ UMP, Pain during resting state", "setting": "patients with lumbago; [3]", "value": "−12.8", "unit": "mm"}, {"measurement": "Δ UMP − Δ Placebo, Daily duration of pain", "setting": "patients with lumbago; [4]", "value": -1.4, "unit": "h"}, {"measurement": "Δ UMP − Δ Placebo, Finger-floor distance", "setting": "patients with lumbago; [4]", "value": "−2.7", "unit": "cm"}, {"measurement": "Δ UMP − Δ Placebo, Pain during movement", "setting": "patients with lumbago; [4]", "value": "−6.8", "unit": "mm"}, {"measurement": "Δ UMP − Δ Placebo, Pain during resting state", "setting": "patients with lumbago; [4]", "value": "−3.4", "unit": "mm"}, {"measurement": "Absolute values of test parameters (pain, daily duration of pain, finger-floor distance) versus placebo group", "setting": "patients with lumbago; during the further three days", "value": "always below the corresponding absolute values for the placebo group"}, {"measurement": "Decrease in pain compared to placebo patients", "setting": "patients with lumbago; within the initial 24 h after the first injection", "value": "clear decrease in pain"}, {"measurement": "Filament area of nerve filaments (myelin and axon areas)", "setting": "[1]", "value": "no comparable results"}]}]}
